The text below walks through data of patent publication US20230181532A1, “GRANULES FOR 3D PRINTING TECHNOLOGY” (BOARD OF REGENTS, THE UNIVERSITY OF TEXAS SYSTEM, priority 2020, published 2023).

Common to all, as to assay type: physicochemical
A short description of data set [1]: Flow through orifice powder flow test. The source says: A United States Pharmacopoeia (USP) compliant flowability tester, with funnel attachments (BEP2, Copley Scientific Limited, Nottingham, UK) was used for the flow-through orifice study. The purpose of this test was to stimulate the flow in a hopper or other mass transfer situations (Taylor et al., 2000). The funnel was placed 40 mm above the collecting beaker, and the beaker was placed on a measuring scale. The nozzle was fixed onto the funnel and the shutter mechanism was used to prevent any premature flow from the funnel. 100 g of the sample powder was transferred to the funnel and the test was started 30 s after the transfer (this facilitated floccule formation). The weight was recorded for the samples with respect to the time in triplicates (n=3) for each nozzle diameter (10, 15, and 25 mm) and samples (PA 12 (reference), granules, and drug). Time versus weight curves were constructed for the processed granules and the properties were compared with PA 12.

Data set [2] in a line: In vitro release testing, pH shift dissolution (USP type II paddle). As to conditions: pH 2, 2 h. As for the experimental part: The in vitro release testing was performed using a pH shift protocol to simulate physiological conditions and contrary to the USP dissolution medium i.e., pH 7.2 phosphate buffer. […] Moreover, because of its pKa and hydrophobicity, and the amorphous nature of the drug in the samples of interest, it was important to expose it to acidic conditions before exposing it to relatively basic conditions. […] If the drug exists in its amorphous form in the formulation, it is crucial to study its stability in the acidic pH as in the physiological environment the formulation will be exposed to it first.
For this pH-shift dissolution test, the above-mentioned samples (n=3) were introduced into 750 mL of HCl-KCl buffer (pH 2, 0.1 M, hydrochloric acid-potassium chloride buffer) for 2 h using a 900 mL vessel. 150 mL of phosphate buffer (pH6.8, 0.1 M) was then introduced to each vessel shifting the pH from 2 to 6.8, with a final volume of 900 mL. […] The dissolution of the samples was tested at the final pH of 6.8 for an additional 2 h. The test was conducted using a Paddle type assembly (USP type II). […] Acetonitrile was used to dilute (2-fold) the drawn samples and the previously described method of analysis was used to quantify the API in the samples.

Data set [3] in a line: Angle of repose (AOR). From the text: A 100 mm circular test platform together with a digital height gauge having a range of 0-300 mm and an accuracy of 0.03 mm was used (BEP2, Copley Scientific Limited. Nottingham, UK). […] The surplus powder was collected in a tray below the test platform. The nozzle (10 mm nozzle for the angle of repose) of the funnel was placed 75 mm above the test platform, and the nozzle was secured using the shutter mechanism. 100 g of the sample (drug and granules) were placed in the funnel, and the shutter was moved gently but rapidly to allow the powder to flow. The powder formed a conical on the test platform and started overflowing. […] The height of the powder cone was measured using the digital height gauge and the diameter of the cone was 100 (diameter of the platform was 100 mm). Equation 2 was used to calculate the angle of repose.

SMILES strings stand for the structures.

Turning to `COc1ccc2c(c1)c(CC(=O)O)c(C)n2C(=O)c1ccc(Cl)cc1` [IND, Indomethacin], the “flow through orifice observation” value in data set [1] is recorded as “no flow throughout the test”. Moreover, in data set [2], the “dissolution behaviour in acidic environment” value is “did not show any improvement in their solubility”. Moreover, in data set [3], the “flow classification as per the AOR reference table” value is “very poor”. The “angle of repose θ value” in data set [3] (10 mm nozzle, 100 g sample, n=3) turned out to be 58.2±0.06 °.
